# Tests used:
# Test in all cases: absorbance of PHP at […] nm
# Format in all cases: biochemical
# LsAA9A = molecular target: T1, LsAA9A (Panus similis, UniProt A0A0S2GKZ1); details: 1 µM Cu-loaded enzyme, with or without DHA, 40 °C, 30 min
# T1 construct: gene LPMO9A; gift from Novozymes, purified to homogeneity, loaded with CuCl2
# T1 sequence (A0A0S2GKZ1 20-254): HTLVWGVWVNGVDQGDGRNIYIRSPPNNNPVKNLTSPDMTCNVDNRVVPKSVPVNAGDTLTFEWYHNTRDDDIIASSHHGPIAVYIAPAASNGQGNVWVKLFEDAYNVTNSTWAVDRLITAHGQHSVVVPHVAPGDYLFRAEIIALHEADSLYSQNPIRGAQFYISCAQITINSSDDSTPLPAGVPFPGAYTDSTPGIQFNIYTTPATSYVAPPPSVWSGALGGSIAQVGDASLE
# SmAA10 = molecular target: T2, SmAA10 (Serratia marcescens, UniProt P9WEM3); details: 1 µM Cu-loaded enzyme, with or without DHA, 40 °C, 30 min
# T2 construct: gene CBP21; expressed using LyGo platform, purified to homogeneity, loaded with CuCl2
# TfAA10A = molecular target: T3, TfAA10A (Thermobifida fusca, UniProt Q47QG3); details: 1 µM Cu-loaded enzyme, with or without DHA, 40 °C, 30 min
# T3 construct: gene Tfu_1268; expressed using LyGo platform, purified to homogeneity, loaded with CuCl2
# T3 sequence (Q47QG3 37-222): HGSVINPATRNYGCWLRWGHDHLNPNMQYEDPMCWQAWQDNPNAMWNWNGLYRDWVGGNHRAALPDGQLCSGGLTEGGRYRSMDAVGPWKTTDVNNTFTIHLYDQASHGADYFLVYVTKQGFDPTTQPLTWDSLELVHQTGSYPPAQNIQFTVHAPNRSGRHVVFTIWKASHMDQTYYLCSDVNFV
# AnAA13 = molecular target: T4, AnAA13 (Aspergillus nidulans, UniProt Q5B1W7); details: 1 µM Cu-loaded enzyme, with or without DHA, 40 °C, 30 min
# T4 construct: gene aasA; gift from Novozymes, purified to homogeneity, loaded with CuCl2
# CotA = molecular target: T5, CotA (Bacillus subtilis, UniProt H8WGE7); details: […] enzyme, with or without DHA, […] °C, […] min
# T5 construct: recombinant from Escherichia coli, purified to homogeneity
# T5 sequence (H8WGE7 1-513): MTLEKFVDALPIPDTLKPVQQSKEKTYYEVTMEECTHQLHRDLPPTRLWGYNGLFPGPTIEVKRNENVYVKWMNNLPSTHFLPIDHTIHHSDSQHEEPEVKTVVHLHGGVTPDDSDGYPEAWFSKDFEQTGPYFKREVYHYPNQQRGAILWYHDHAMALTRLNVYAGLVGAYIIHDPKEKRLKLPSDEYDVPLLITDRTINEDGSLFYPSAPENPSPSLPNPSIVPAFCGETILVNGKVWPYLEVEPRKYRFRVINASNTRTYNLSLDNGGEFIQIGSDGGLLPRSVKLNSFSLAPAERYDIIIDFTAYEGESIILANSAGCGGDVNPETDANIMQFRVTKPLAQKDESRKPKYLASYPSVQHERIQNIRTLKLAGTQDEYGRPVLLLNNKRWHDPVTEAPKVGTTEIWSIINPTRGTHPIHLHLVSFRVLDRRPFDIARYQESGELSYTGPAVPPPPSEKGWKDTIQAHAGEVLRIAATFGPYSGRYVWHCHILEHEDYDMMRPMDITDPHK
# MtL = molecular target: T6, MtL (Thermothelomyces thermophilus, UniProt G2QFD0); details: 1 µM enzyme, with or without DHA, 40 °C, 30 min
# T6 construct: gene LMCO1; gift from Novozymes, purified to homogeneity
# T6 sequence (G2QFD0 21-650): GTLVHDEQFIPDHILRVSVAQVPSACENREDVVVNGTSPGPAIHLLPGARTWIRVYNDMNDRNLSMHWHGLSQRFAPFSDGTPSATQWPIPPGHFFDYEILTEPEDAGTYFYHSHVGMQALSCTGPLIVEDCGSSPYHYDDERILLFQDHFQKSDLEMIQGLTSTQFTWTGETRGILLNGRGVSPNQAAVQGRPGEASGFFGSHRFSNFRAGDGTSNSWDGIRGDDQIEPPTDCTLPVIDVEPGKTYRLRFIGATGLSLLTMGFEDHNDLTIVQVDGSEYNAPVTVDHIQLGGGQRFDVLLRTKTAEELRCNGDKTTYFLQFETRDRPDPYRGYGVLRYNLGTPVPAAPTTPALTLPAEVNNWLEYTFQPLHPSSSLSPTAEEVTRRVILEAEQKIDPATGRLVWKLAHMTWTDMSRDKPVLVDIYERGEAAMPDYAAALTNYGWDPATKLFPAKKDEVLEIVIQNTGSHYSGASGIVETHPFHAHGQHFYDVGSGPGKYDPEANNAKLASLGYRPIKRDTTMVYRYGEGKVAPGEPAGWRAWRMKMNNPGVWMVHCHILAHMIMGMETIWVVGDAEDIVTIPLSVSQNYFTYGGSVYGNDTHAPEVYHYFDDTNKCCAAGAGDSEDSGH
# TtAA9 = molecular target: T7, TtAA9 (Thermothielavioides terrestris, UniProt D0VWZ9); details: 1 µM Cu-loaded enzyme, with or without DHA, 40 °C, 30 min
# T7 construct: gene gh61e; gift from Novozymes, purified to homogeneity, loaded with CuCl2
# T7 sequence (D0VWZ9 entry or part of it): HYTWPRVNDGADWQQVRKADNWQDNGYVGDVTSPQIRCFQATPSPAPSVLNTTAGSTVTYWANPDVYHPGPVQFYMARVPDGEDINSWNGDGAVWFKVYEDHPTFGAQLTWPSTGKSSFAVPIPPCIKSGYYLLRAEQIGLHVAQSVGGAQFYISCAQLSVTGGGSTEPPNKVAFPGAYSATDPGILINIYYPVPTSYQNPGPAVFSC
# T2 sequence (P9WEM3 28-197): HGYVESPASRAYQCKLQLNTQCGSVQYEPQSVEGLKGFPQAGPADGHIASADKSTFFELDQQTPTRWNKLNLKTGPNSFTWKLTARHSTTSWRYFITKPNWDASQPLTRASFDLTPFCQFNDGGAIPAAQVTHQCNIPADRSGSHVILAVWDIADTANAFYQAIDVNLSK
# T4 sequence (Q5B1W7 19-385): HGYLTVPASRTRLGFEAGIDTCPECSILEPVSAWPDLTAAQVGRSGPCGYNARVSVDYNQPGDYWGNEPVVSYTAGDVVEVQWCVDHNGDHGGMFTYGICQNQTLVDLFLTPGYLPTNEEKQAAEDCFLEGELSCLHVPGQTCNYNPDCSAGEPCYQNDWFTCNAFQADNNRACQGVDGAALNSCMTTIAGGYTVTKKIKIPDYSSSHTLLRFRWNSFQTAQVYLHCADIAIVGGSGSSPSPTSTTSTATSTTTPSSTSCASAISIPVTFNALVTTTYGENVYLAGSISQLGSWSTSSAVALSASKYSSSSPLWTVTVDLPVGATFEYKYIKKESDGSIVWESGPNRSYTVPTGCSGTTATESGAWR
compound,measurement,setting,value
"O=C(O)c1ccccc1C(c1ccc(O)cc1)c1ccc(O)cc1 [rPHP, reduced phenolphthalein]",absorbance of PHP at 552 nm,LsAA9A,All LPMOs tested oxidise rPHP in a DHA dependent reaction
same,absorbance of PHP at 552 nm,SmAA10,All LPMOs tested oxidise rPHP in a DHA dependent reaction
same,absorbance of PHP at 552 nm,TfAA10A,All LPMOs tested oxidise rPHP in a DHA dependent reaction
same,absorbance of PHP at 552 nm,AnAA13,AnAA13 stands out with a relatively large rPHP oxidation without DHA
same,absorbance of PHP at 552 nm,CotA,"did oxidise rPHP; however, the rPHP oxidising activity of these enzymes was not enhanced"
same,absorbance of PHP at 552 nm,MtL,"did oxidise rPHP; however, the rPHP oxidising activity of these enzymes was not enhanced"
same,absorbance of PHP at 552 nm,TtAA9,All LPMOs tested oxidise rPHP in a DHA dependent reaction
